Data as given in patent US8883745B2, “C—glycolipids with enhanced Th-1 profile” (New York University, priority 2006, dated 2014).

Assays:
[1] = system: IL-4; test: IL-4 levels in sera upon i.v. glycolipid administration to C57BL/6 mice (ELISA); type: in vivo; design: unit not given here; details: for IL-4 level, Total: total over hours 0-72
Description: (§1) Five- to six-week-old female C57BL/6 mice and BALB/c mice were purchased from Taconic. Each glycolipid was stored at 1 mg/ml in 100% DMSO. Mice were injected intravenously with 1 μg of each glyocolipid diluted in 200 μL sterile phosphate buffered saline (PBS). At indicated time points, sera were collected from each animal, and concentrations of IFN-γ, IL-4, and IL-12 in the sera were evaluated by enzyme-linked immunosorbent assay (ELISA). Serum concentrations of IFN-γ, IL-4, and IL-12 were evaluated using an ELISA kit (eBioscience, San Diego, Calif.). Briefly, 96 well flat-bottom ELISA plates (NUNC) were coated with capture antibody according to the manufacture's recommendation and incubated overnight at 4° C. The plates were washed with PBS+0.05% Tween 20 (PBS-T), then incubated with manufacturer provided blocking solution for 1 hr at room temperature to block non-specific binding sites. After washing with PBS-T, sera diluted 1:10 was added to the wells and incubated for 2 hrs at room temperature. Plates were then incubated at room temperature for 1 hr with biotintylated detection antibody, washed, incubated with avidin conjugated to horse radish peroxidase (HRP) for 30 min at room temperature, washed, and finally incubated with tetramethylbenzidine substrate solution in the dark for 10 minutes at room temperature. The antibodies, avidin-HRP, and substrate solution were all diluted according to the manufacture's recommendation. Reactions were stopped with 2.0N sulfuric acid and the cytokine concentration in each well was determined by comparing the absorbance at 450 nm in each well to known standards. The levels of Th1- and Th2-type cytokines were determined in two different genetic backgrounds, i.e., in C57BL/6 mice and BALB/c mice. The following compounds were administered: A=compound (A-1 trans-conformer), B=compound (A-2), C=compound (A-3), D=compound (A-4), E=compound (A-5), Z=control (PBS alone), CRONY=α-C-GalCer, KRN=α-GalCer, GCK109 (A-1 trans-conformer), GCK151 (A-1 cis-conformer), GCK152 (A-7). The levels of cytokines were measured at 0, 2, 6, 12, 24, 48, and 72 hours after the compound administration. The levels of Th1-type cytokines IFN-γ and IL-12 are summarized in FIGS. 2A-C and 3A-C, respectively. Table 7 provides IFN-γ/IL-4 and IL-12/IL-4 ratios for various compounds, which can be used as indicators of their ability to selectively stimulate Th1-type immune responses.

[2] = system: rodent malaria parasites, P. yoeli and P. berghei; details: cited from earlier work
[3] = system: melanoma metastases; details: in vivo administration; cited from earlier work
[4] = system: IFN-γ; test: IFN-γ levels in sera upon i.v. glycolipid administration to C57BL/6 mice (ELISA); type: in vivo; design: IFN-γ levels, test 1 / IFN-γ levels, test 2 / IFN-γ levels, average / IFN-γ levels, Total / IFN-γ (B6): unit not given here; details: for IFN-γ/IL-4 (B6): C57BL/6, ratio calculated from Tables 1-6; for IFN-γ levels, average / IFN-γ levels, test 1 / IFN-γ levels, test 2 / IFN-γ levels, Total: C57BL/6, serum; for IFN-γ levels, Total: total over hours 0-72
Description: as §1

[5] = Solubility in an aqueous solution; type: physicochemical
[6] = system: solid tumors; details: Phase I study; cited from earlier work
[7] = rodents and monkeys, independently of dosage; cited from earlier work

## CCCCCCCCCCCCCCCCCCCCCCCCCC(=O)N[C@@H](CC[C@H]1O[C@H](CO)[C@H](O)[C@H](O)[C@H]1O)[C@H](O)[C@H](O)CCCCCCCCCCCCCC [CRONY, reference compound]
[1]; hour 0
  IL-4 level, average: 46
  IL-4 level, test 1: 46
  IL-4 level, test 2: 46
[1]; hour 2
  IL-4 level, average: 464
  IL-4 level, test 1: 286
  IL-4 level, test 2: 642
[1]; hour 6
  IL-4 level, average: 73
  IL-4 level, test 1: 48
  IL-4 level, test 2: 98
[1]; hour 12
  IL-4 level, average: 34
  IL-4 level, test 1: 12
  IL-4 level, test 2: 56
[1]; hour 24
  IL-4 level, average: 23
  IL-4 level, test 1: 16
  IL-4 level, test 2: 30
[1]; hour 48
  IL-4 level, average: 11.5
  IL-4 level, test 1: 17
  IL-4 level, test 2: 6
[1]; hour 72
  IL-4 level, average: 21.5
  IL-4 level, test 1: 15
  IL-4 level, test 2: 28
[1]
  IL-4 level, Total: 674
[2]; in vivo administration
  improved activity against malaria (as compared to α-GalCer): 1000 fold
[3]
  improved activity against melanoma metastases (as compared to α-GalCer): 100 fold
[4]
  IFN-γ/IL-4 (B6): 17
  IFN-γ levels, Total: 11653
[4]; hour 0
  IFN-γ levels, average: 31
  IFN-γ levels, test 1: 31
  IFN-γ levels, test 2: 31
[4]; hour 2
  IFN-γ levels, average: 355.5
  IFN-γ levels, test 1: 359
  IFN-γ levels, test 2: 352
[4]; hour 6
  IFN-γ levels, average: 1094.5
  IFN-γ levels, test 1: 1083
  IFN-γ levels, test 2: 1106
[4]; hour 12
  IFN-γ levels, average: 2512.5
  IFN-γ levels, test 1: 2667
  IFN-γ levels, test 2: 2358
[4]; hour 24
  IFN-γ levels, average: 6589.5
  IFN-γ levels, test 1: 6511
  IFN-γ levels, test 2: 6668
[4]; hour 48
  IFN-γ levels, average: 777.5
  IFN-γ levels, test 1: 798
  IFN-γ levels, test 2: 757
[4]; hour 72
  IFN-γ levels, average: 290
  IFN-γ levels, test 1: 279
  IFN-γ levels, test 2: 301
[4]; C57BL/6, total from Table 2
  IFN-γ (B6): 11652

## CCCCCCCCCCCCCCCCCCCCCCCCCC(=O)N[C@@H](CO[C@H]1O[C@H](CO)[C@H](O)[C@H](O)[C@H]1O)[C@H](O)[C@H](O)CCCCCCCCCCCCCC [KRN, (2S,3S,4R)-1-O-(α-D-galactopyranosyl)-2-(N-hexacosanoylamino)-1,3,4-,-octadecanetriol, reference compound]
[5]
  solubility in an aqueous solution relative to the tested compounds of the invention: more soluble
[1]; hour 0
  IL-4 level, average: 46
  IL-4 level, test 1: 46
  IL-4 level, test 2: 46
[1]; hour 2
  IL-4 level, average: 3915
  IL-4 level, test 1: 3584
  IL-4 level, test 2: 4246
[1]; hour 6
  IL-4 level, average: 183
  IL-4 level, test 1: 122
  IL-4 level, test 2: 244
[1]; hour 12
  IL-4 level, average: 102.5
  IL-4 level, test 1: 103
  IL-4 level, test 2: 102
[1]; hour 24
  IL-4 level, average: 18
  IL-4 level, test 1: 20
  IL-4 level, test 2: 16
[1]; hour 48
  IL-4 level, average: 1
  IL-4 level, test 1: 2
  IL-4 level, test 2: 0
[1]; hour 72
  IL-4 level, average: 0.5
  IL-4 level, test 1: 0
  IL-4 level, test 2: 1
[1]
  IL-4 level, Total: 4267
[2]; administration to mice
  anti-malaria activity (inhibition of intra-hepatocytic stages): strong anti-malaria activity
[4]
  IFN-γ/IL-4 (B6): 3
  IFN-γ levels, Total: 10686
[4]; hour 0
  IFN-γ levels, average: 31
  IFN-γ levels, test 1: 31
  IFN-γ levels, test 2: 31
[4]; hour 2
  IFN-γ levels, average: 874.5
  IFN-γ levels, test 1: 938
  IFN-γ levels, test 2: 811
[4]; hour 6
  IFN-γ levels, average: 1919
  IFN-γ levels, test 1: 1811
  IFN-γ levels, test 2: 2027
[4]; hour 12
  IFN-γ levels, average: 5352.5
  IFN-γ levels, test 1: 5179
  IFN-γ levels, test 2: 5526
[4]; hour 24
  IFN-γ levels, average: 2216
  IFN-γ levels, test 1: 2214
  IFN-γ levels, test 2: 2218
[4]; hour 48
  IFN-γ levels, average: 126
  IFN-γ levels, test 1: 252
  IFN-γ levels, test 2: 0
[4]; hour 72
  IFN-γ levels, average: 166
  IFN-γ levels, test 1: 332
  IFN-γ levels, test 2: 0
[6]
  effect in patients with solid tumors: little effect
[7]
  toxicity: does not induce toxicity

## CCCCCCCCCCCCCC[C@@H](O)[C@@H](O)[C@H](CC[C@H]1O[C@H](CO)[C@H](O)[C@H](O)[C@H]1O)NC(=O)CCCCCCCCCCCCCCCCCCCOCCCCCC [A-4]
[1]; hour 0
  IL-4 level, average: 46
  IL-4 level, test 1: 46
  IL-4 level, test 2: 46
[1]; hour 2
  IL-4 level, average: 696.5
  IL-4 level, test 1: 627
  IL-4 level, test 2: 766
[1]; hour 6
  IL-4 level, average: 126
  IL-4 level, test 1: 83
  IL-4 level, test 2: 169
[1]; hour 12
  IL-4 level, average: 43.5
  IL-4 level, test 1: 40
  IL-4 level, test 2: 47
[1]; hour 24
  IL-4 level, average: 29.5
  IL-4 level, test 1: 29
  IL-4 level, test 2: 30
[1]; hour 48
  IL-4 level, average: 28.5
  IL-4 level, test 1: 39
  IL-4 level, test 2: 18
[1]; hour 72
  IL-4 level, average: 41.5
  IL-4 level, test 1: 54
  IL-4 level, test 2: 29
[1]
  IL-4 level, Total: 1014
[4]
  IFN-γ/IL-4 (B6): 10
  IFN-γ levels, Total: 10532
[4]; hour 0
  IFN-γ levels, average: 31
  IFN-γ levels, test 1: 31
  IFN-γ levels, test 2: 31
[4]; hour 2
  IFN-γ levels, average: 308.5
  IFN-γ levels, test 1: 255
  IFN-γ levels, test 2: 362
[4]; hour 6
  IFN-γ levels, average: 1329
  IFN-γ levels, test 1: 1381
  IFN-γ levels, test 2: 1277
[4]; hour 12
  IFN-γ levels, average: 2335.5
  IFN-γ levels, test 1: 2466
  IFN-γ levels, test 2: 2205
[4]; hour 24
  IFN-γ levels, average: 5563.5
  IFN-γ levels, test 1: 5291
  IFN-γ levels, test 2: 5836
[4]; hour 48
  IFN-γ levels, average: 742
  IFN-γ levels, test 1: 581
  IFN-γ levels, test 2: 903
[4]; hour 72
  IFN-γ levels, average: 220.5
  IFN-γ levels, test 1: 245
  IFN-γ levels, test 2: 196
